# Laboratory results reported in patent US10689415B2, “Conjugates of RGD peptides and (bacterio)chlorophyll photosensitizers” (YEDA RESEARCH AND DEVELOPMENT COMPANY LTD., priority 2006, dated 2020).
# Key:
# [1] = test system: orthotopic human breast MDA-MB-231-RFP primary tumor; test: Whole-body NIR fluorescence imaging of accumulation in orthotopic MDA-MB-231-RFP tumor; format: in vivo, CD-1 nude female mice; details: for accumulation in the tumor (NIR fluorescence): 15 mg/kg i.v.
# Description: RFP fluorescence, in units of photons/sec, was detected using 525/50 nm and 612/75 nm filter sets for excitation and emission, respectively, with one second integration time. NIR fluorescence of the different photosensitizers, in units of photons/sec, was detected using 680/30 nm and 847/75 nm filter sets for excitation and emission, respectively, at an integration time of five seconds. Background fluorescence for all quantitative analyses was calculated by recording the average fluorescence (photons/sec)/cm^2 from three animals in three different areas around and within the tumor of untreated animals provided with a similar diet for three days before measurements. Drug accumulation was determined following i.v. administration of molar equivalents of the photosensitizer to the tail vein of mice fed with a chlorophyll-free, purified diet for three days before administration (in order to reduce skin and food autofluorescence). Before imaging, mice were anesthetized by intraperitoneum injection of a 30 μl mixture of 85:15 ketamine:xylazine.
# In order to study the accumulation of the photosensitizer in primary mammary tumors, the MDA-MB-231-RFP cells (4×10^6) were implanted orthotopicaly in the mammary pad of the mice. Tumors developed to the wanted size, bigger than 1 cm^3, within 3-4 weeks.
# Tumor imaging main filter set comprised: excitation filter 500-550 nm, emission filter 575-650 nm; Background filter set for subtraction the tissue auto fluorescence: excitation filter 460-490 nm, emission filter 575-650 nm. Photosensitizer imaging main filter set: excitation filter 665-695 nm, emission filter 810-875 nm.
# Images were taken at these time points post drug injection: 15 min, 1, 2, 3, 4.5, 6, 7.5, 9, 24 hr, 2, 3, 4, 5, 6, 7 days.
# [2] = test system: large MDA-MB-231-RFP tumors; test: Biodistribution and pharmacokinetics (fluorescence of tissue extracts) in MDA-MB-231-RFP tumor-bearing mice; format: in vivo, CD-1 nude female mice
# Description: Mammary fat pads (left, bottom nipple) of female mice were inoculated with harvested MDA-MB-231-RFP human breast cancer cells (4×10^6 in […] saline). Tumors were classified as ‘small’ (˜100 mm^3) at one to two weeks from time of cell injection, or ‘large’ after three to four weeks (necrotic tumors, 250 to 500 mm^3). To avoid tumor burden, mice were sacrificed (cervical dislocation) when tumor size reached 10% of body weight or at 90 days post-implantation. External caliper measurements, length (L), width (W) and depth (D) were used to calculate in vivo tumor volume according to the formula: V=L/2·W/2·D/2·π·4/3.
# Anesthetized mice were i.v. injected (tail vein) with the different photosensitizer (pigment) conjugates (control group: untreated). The mice were sacrificed at indicated time points and samples of the indicated organs and tissues (blood, tumor, intestine, liver, spleen, kidneys, testies, heart, lung, brain, skin, muscle and fat) were placed in pre-weighted vials and immediately frozen and stored at −20° in the dark until analyzed. Three methods were used for sample preparation: (1) Each sample was thawed and homogenized in DDW (1:10 w/v). Aliquots of the homogenate (500 μl) were lyophilized in Eppendorf test tubes. Then, 60 μl of HNO3 (70%, TraceSelect, Fluka) were added to each dry sample, incubated for 1 h at 90° C. and diluted with DDW to 3 ml. (2) Each sample was diluted (1:2 w/v) in HNO3 (70%, TraceSelect, Fluka). The samples were sonicated for 30 min in boiled water, and left for at least 48 h at room temperature. (3) Applied for assessment of non-metalated conjugates. Each sample was thawed and homogenized in methanol (100 mg tissue/ml) and extracted the next morning by centrifugation (13,000×g, five minutes) at room temperature. In methods (1) and (2), 140 μl from each sample was added to 3.36 ml DDW to give total volume of 3.5 ml and incubated for 1 h at 90° C. Pd concentrations were determined by ICP-MS. According to method (3), the supernatants were diluted in methanol by a factor of two and the drug concentration was determined by fluorescence measurements (Varian-Cary Eclipse spectrofluorimeter, Palo Alto, Calif., USA) at 750 nm (peak values). Drug concentrations were interpolated from a fluorescence calibration curve, based on predetermined drug concentrations using absorption spectroscopy.
# [3] = test system: human mammary cancer MDA-MB-231-RFP xenografts; test: In vivo PDT of MDA-MB-231-RFP xenografts; parameters: species or system CD-1 nude male mice; details: 7.5 mg/kg i.v.
# Description: For the PDT experiments, MDA-MB-231 RFP cells (4×10^6) were implanted subcutaneously on the backs of the mice and tumors developed to the treatment size (6-8 mm) within 2-3 weeks.
# The tumors were illuminated for 10 min. The drug light interval used was 8 hr post drug injection. Transdermal illumination through the mouse skin with 755 nm diode laser at 100 mW/cm^2 (CeramOptec, Germany) was used. After the treatment, the mice were returned to the cage. […] In the light control group, the mice were illuminated for 10 min with 100 mW/cm^2. During the first 2 days post PDT, as needed, the mice received analgesia (2.5 mg/kg Flunexin daily) and 3 days Oxycode in the drinking water. The end point of animal survival is when the size of the tumor reaches 10% of animal weight. Mice are sacrificed at this time (up to 90 days) by cervical dislocation.
# FIGS. 35A-35B show two representative examples to local response of human MDA-MB-231-RFP to PDT. […] 35A—Photographs taken from day 0 (before treatment) and after treatment at 1, 4, 7, 12 and 90 days. […] 35B—In vivo whole-body red fluorescence imaging of CD-1 nude male mice bearing MDA-MB-231-RFP orthotopic tumor.
# CT26luc colon cancer = test: In vivo PDT (VTP) of CT26luc colon cancer; parameters: species or system CD-1 nude male mice; details: i.v. injected and illuminated after 8 hours
# Description: CD-1 nude male mice bearing the different tumor xenografts were anesthetized and 24 (5-24 mg/kg body weight) or 8 (9 mg/kg body weight) were i.v. injected via the tail vein. The tumors were trans-cutaneously illuminated after 3.5, 6, 8, 12 and 24 hours for 5-30 min at light doses of 30-360 J/cm^2. Intensity of illumination: 100-200 mW/cm^2. After treatment, the mice were returned to the cage. The mice were considered cured if tumor free for 90 days after treatment. Mice were euthanized when the tumor diameter reached 15 mm. […] (5) Mixture of 8 and cycloRGDfK: the mice were i.v. injected with mixture of 8 with cycloRGDfK and illuminated after indicated time point. (6) cycloRGDfK alone: the mice were i.v. injected with cycloRGDfK and illuminated after indicated time point. Images were taken at indicated time post PDT.
# FIGS. 32A-32F show the therapeutic results of applying 15 mg/kg, 10 min illumination (60 J/cm^2), 8 hours post injection of conjugate 24 to mice bearing CT26luc tumors (bolded protocol in Table 5). 32A—conjugate 24 was i.v. injected 15 mg/kg, 10 min illumination (60 J/cm^2) 8 hours post injection; 32B—overlaid images taken after i.p. injection of luciferin to the mouse described in 32A, using the IVIS system. The first image is black and white, which gives the photograph of the animal. The second image is color overlay of the emitted photon data. […]
# [4] = Solubilization for in vitro experiments (water solubility); format: physicochemical
# Description: Compound 24 was dissolved in 100% DMSO before use and diluted in saline to a final DMSO concentration of 5% v/v.
# H5V endothelial cells = test: Phototoxicity assay (Neutral Red cell viability after illumination); format: cell-based, mouse
# Description: The light source for in vitro studies was home-built 100-W halogen lamp equipped with a high-pass filter (>650 nm, Safelight filter 1A Eastman Kodak Co., Rochester, N.Y., USA) and a 4-cm water filter. The lamp was used to illuminate (20 mW/cm^2/10 min (12 J/cm^2)) the culture plates from the bottom at room temperature in a dark room.
# To determine the pigment photodynamic efficacy in vitro under standard conditions, cells were cultured in 96-well plates and preincubated for 15 or 90 min at 37° C. or 4° C., according to the indicated experiment protocol, with 0-25 μM conjugated or non-conjugated photosensitizer in different media conditions (culture medium DMEM/F12; 10% FCS in medium or 10 μM BSA in medium) in the absence or presence of excess free peptide (100 fold up to 1 mM). The cells were washed and illuminated (20 mW/cm^2 for 10 min). Plates were placed back in the culture incubator for 24 h. Cell survival was determined using Neutral Red cell viability assay. Cell survival was calculated as the percent of the dye accumulated in the untreated controls. […] Three kinds of controls were used: (i) light control: cells illuminated in the absence of pigments; (ii) dark control: cells treated with pigments but kept in the dark; and (iii) untreated cells that were kept in the dark.
# Following photosensitization and a 24-h incubation period (37° C.), cell survival was determined by Neutral Red (Fluka Chemie, Buchs, Switzerland) accumulation. After subtraction of assay blanks, net optical density (570 nm) was computed as the average value of triplicates determinations. Cell survival was calculated as the percent of the dye accumulated in the untreated controls.
# H5V cells were incubated for 90 min at 37° C. with 0-25 μM of conjugate 23 or compound 10 in different media conditions, illuminated and their survival was determined using Neutral Red viability assay as described in Materials and Methods.
# Targeted phototoxicity is defined as one inhibited by the free ligand. Thus, further experiments attempted to block phototoxicity by administration of the free cycloRGDfK, which competes for the cellular binding of conjugate 23. H5V cells were incubated for 90 min at 37° C. with 0-25 μM of compound 10 or conjugate 23 in different media (10% FCS in medium or 10 μM BSA in medium) in the absence or presence of free excess cycloRGDfK (100-fold up to 1 mM). The cells were illuminated and cell survival was determined using Neutral Red viability assay, as described above.
# In order to test the endocytosis theory and since the endocytic process is time- and temperature-dependent, H5V cells were incubated at 37° C. and 4° C. for 15 min with 0-20 μM of conjugate 23 in medium containing 10% FCS, in the presence or absence of excess cycloRGDfK (100-fold up to 1 mM). Cells were illuminated and their survival was determined as described above.
# The phototoxicity of conjugate 24 was determined by monitoring the survival of cultured H5V endothelial cells following PDT. H5V cells were incubated for 2 hours at 37° C. with 0-25 μM conjugate 24 in culture medium DMEM/F12 with 10% FCS. The cells were illuminated and their survival was determined as described above.
# Cells were incubated for 90 min at 37° C. in the presence of 0-20 μM conjugate 11 or compound 8 in 10 μM BSA in medium, illuminated and their survival was determined as described above.
# MDA-MB-231 breast tumor = test: Biodistribution (Cu by ICP-MS) in mice bearing MDA-MB-231 breast tumor; format: in vivo, female CD-1 nude mice
# Description: The biodistribution of Cu-conjugate 15 was determined in female CD-1 nude mice of 6-8 weeks-old, weighing 20-23 g and bearing 6-9-mm^3 tumors of human adenocarcinoma cells obtained from breast tissue (MDA-MB-231 cells). The conjugate (30 mg/ml in 5% DMSO/PBS) was injected to the tail vein, and the animals were sacrificed in selected time points. Cu concentrations were determined by ICP-MS as described in Material and Methods.
# MLS ovarian carcinoma = test: Fluorescence imaging, MLS ovarian carcinoma; format: in vivo, mice; details: 8 mg/kg i.v.
# Description: Conjugate 26 (8 mg/kg) was i.v. injected into animals bearing MLS ovarian carcinoma. Images on IVIS were taken after 8 and 14 hours.
compound,measurement,setting,value
"3^1-oxo-15-methoxycarbonylmethyl-Rhodobacteriochlorin 13^1-(2-sulfoethyl)amide potassium salt [Compound 25, reference compound]",specific tumor fluorescence,"[1]; 9 mg/kg i.v., large necrotic tumors, one hour post injection",No specific tumor fluorescence
same,accumulation in the tumor (tissue extracts),[2]; 9 mg/kg i.v.,no accumulation of 25 in the tumor at any time longer than one hour post administration
3^1-oxo-15-methoxycarbonylmethyl-Rhodobacteriochlorin 13^1-(2-sulfoethyl)amide-17^3-(cycloRGDfK)amide potassium salt [Conjugate 13],whole-body red fluorescence (tumor) signal after PDT,[3]; 90 days after treatment,No signal was detected 90 days after treatment
same,local tumor response to PDT,"[3]; illuminated 8 h later, 755 nm, 100 mW/cm^2, 10 min",after 90 days the wound healed and the animal was cured
same,accumulation in the tumor (NIR fluorescence),"[1]; 15 min to 24 hr post injection, tumor size ~1 cm^3, potassium salt",no specific accumulation in the tumor during the first 24 hours
same,accumulation in the tumor (NIR fluorescence),[1]; day 1 to 6 post injection,reaching peak concentration specifically in the tumor from day 2 post injection
same,peak concentration in the tumors,[2]; 15 mg/kg i.v.,11 μg drug/gr tumor tissue
same,peak tumor level as share of the initial drug dose,[2]; 15 mg/kg i.v.,about 3.0%
same,time of peak concentrations in the tumors,[2]; 15 mg/kg i.v.,eight hours post-injection
same,time to clear to nearly background levels in normal tissues,[2]; 15 mg/kg i.v.,less than 72 hours
same,time of peak levels in the normal tissues examined,"[2]; 15 mg/kg i.v., blood, liver, kidney",less than five minutes post-injection
N=C(N)NCCC[C@@H]1NC(=O)[C@H](CCCCN)NC(=O)[C@@H](Cc2ccccc2)NC(=O)[C@H](CC(=O)O)NC(=O)CNC1=O [cycloRGDfK],PDT effect of controls,CT26luc colon cancer,no PDT effect
same,water solubility,[4],Water insoluble
"Palladium 3-oxo-15-methoxycarbonylmethyl-Rhodobacteriochlorin-13^1-(2,3-dihydroxypropyl)amide potassium salt [Compound 10]",LD50,"H5V endothelial cells; 10 μM BSA in medium (90 min, 37° C.)",3.5 to 5 µM
same,LD50,"H5V endothelial cells; 10 μM BSA in medium (90 min, 37° C.), with free peptide in excess (cycloRGDfK)",5 µM
same,LD50,"H5V endothelial cells; 10% FCS (90 min, 37° C.)",5 to 7 µM
same,LD50,"H5V endothelial cells; 10% FCS (90 min, 37° C.), with free peptide in excess (cycloRGDfK)",5 µM
same,influence of excess cycloRGDfK on phototoxic effects,"H5V endothelial cells; 90 min, 37° C., 100-fold up to 1 mM",not influenced by the presence of excess cycloRGDfK
same,LD50,"H5V endothelial cells; culture medium (90 min, 37° C.)",7 µM
same,phototoxic effects,"H5V endothelial cells; different media, 90 min, 37° C., 0-25 μM",light- and drug concentration-dependent
same,water solubility,[4],Water insoluble
Copper(II) 3^1-oxo-15-methoxycarbonylmethyl-Rhodobacteriochlorin 13^1-(2-sulfoethyl)amide-17^3-(cycloRGDfK)amide potassium salt [Conjugate 15],tumor intensity in comparison with surrounding normal tissue,MDA-MB-231 breast tumor; at peak,about 3 fold
same,time of peak accumulation in tumor after injection,MDA-MB-231 breast tumor; i.v. tail vein,8 to 12 h
3^1-oxo-15-methoxycarbonylmethyl-Rhodobacteriochlorin 13^1-(2-sulfoethyl)amide-17^3-(GRGDSP)amide potassium salt [Conjugate 26],accumulation (fluorescence),MLS ovarian carcinoma; 8 hours,did not present accumulation
same,accumulation (fluorescence),MLS ovarian carcinoma; 14 hours,a high level of fluorescence was observed in tumor and liver areas
